Calls of active or inactive are those of the source.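 How the source made its calls: active means at least two of three replicate dose series yielding a converging curve fit, whether well or thinly supported; inactive means the rest.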
What follows are molecules tested against D(1A) dopamine receptor (Homo sapiens) (UniProt P21728) (assay: D1 receptor modulation with EC30 dopamine, dose response, D1 allosteric modulator project, cell-based, CRE-luciferase, HEK293 (AID 858);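 further: HEK 293 cells bearing human D1 receptor stimulated by dopamine at its EC30; luciferase light from a cAMP response element reporter gene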).
D(1A) dopamine receptor (Homo sapiens), sequence (P21728 whole entry, looked up): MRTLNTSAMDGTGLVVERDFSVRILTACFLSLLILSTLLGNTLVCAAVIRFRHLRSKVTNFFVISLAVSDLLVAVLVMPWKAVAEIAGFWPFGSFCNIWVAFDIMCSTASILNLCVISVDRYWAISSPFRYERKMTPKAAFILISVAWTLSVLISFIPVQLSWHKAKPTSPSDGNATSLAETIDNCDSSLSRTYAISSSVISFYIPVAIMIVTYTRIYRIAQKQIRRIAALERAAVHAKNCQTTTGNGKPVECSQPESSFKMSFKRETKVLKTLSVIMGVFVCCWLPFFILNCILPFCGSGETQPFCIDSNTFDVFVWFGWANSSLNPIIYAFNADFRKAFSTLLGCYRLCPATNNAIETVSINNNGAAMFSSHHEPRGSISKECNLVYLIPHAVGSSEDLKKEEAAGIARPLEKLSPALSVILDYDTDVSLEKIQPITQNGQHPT

SMILES | outcome | EC50
CC(C)Cc1nc(N2CCN(C(=O)C(C)C)CC2)c(C#N)c2c1CCC2 | inactive | 
CCOC(=O)CSc1nc2c(sc(=S)n2Cc2ccco2)c(=O)n1-c1ccccc1 | inactive | 
CC(C)n1c(C(O)c2ccccc2)nc2ccccc21 (centres undefined) | inactive | 
Cc1onc(-c2ccccc2)c1C(=O)Nc1ccc2c(c1)OCO2 | inactive | 
Cc1cc(Br)c2c(c1)=C(c1sc(N3CCCCCC3)nc1O)C(=O)N=2 |  | 1350 nM
COc1ccc(S(=O)(=O)Nc2ccc3c(c2)OCO3)cc1OC | inactive | 
CC(=O)N1CCC2(CC1)C(C#N)=C(N)Oc1c2sc2nc(C)cc(C)c12 | inactive | 
Cc1cc(C)nc(SCC(=O)Nc2ncc3c(n2)CC(C)(C)CC3=O)n1 | inactive | 
CCn1nc(C(=O)NC2=NCCS2)c2ccccc2c1=O | inactive | 
Clc1ccccc1-c1nnc2sc(-c3ccc(Br)o3)nn12 | inactive | 
COc1cc2c(cc1OC)C(C(=O)Nc1ccc3c(c1)OCCO3)C1c3ccccc3CCN1C2=O (centres undefined) | inactive | 
CCOC(=O)N1CCN(C(=O)CCCn2c(=S)[nH]c3ccccc3c2=O)CC1 | inactive | 
Cn1c2c(c3ccccc31)CC/C2=N\O | inactive | 
Cn1c(Cn2c(=O)sc3ccccc32)nnc1SCC(=O)N1CCOCC1 | inactive | 
COC(=O)c1sc(=S)sc1C(=O)OC | inactive | 
COCCNc1oc(-c2ccc(C)cc2)nc1C#N | inactive | 
COc1ccc(C2CC(c3cc(OC)ccc3OC)n3nnnc3N2)cc1 (centres undefined) | inactive | 
CCOC(=O)c1cc2c(=O)n3ccccc3nc2n(CCCOC)c1=NC(=O)C(C)(C)C | inactive | 
CCCn1c(=O)c2ccccc2n2c(SCc3nc4ccccc4s3)nnc12 | inactive | 
C=C(C)CSc1nc2c(cc1C#N)CCC2 | inactive | 
Cc1ccc2c(c1)-c1c(ssc1=S)C(C)(C)N2C(=O)CSc1nncn1C | inactive | 
COc1ccc(NC(=O)c2ccc(NS(=O)(=O)c3c(C)noc3C)cc2)cc1OC | inactive | 
O=C(c1cccn2c(=O)c3cc(Cl)ccc3nc12)N1CCN(Cc2ccc3c(c2)OCO3)CC1 | inactive | 
CC(=O)c1cc(C#N)c(SCC(=O)OC(C)(C)C)nc1C | inactive | 
C=CCNC(=O)C1CC(c2cccc(OC)c2)=NO1 (centres undefined) | inactive | 
COc1cccc(NC2=NCC(=O)N2Cc2cccs2)c1 | inactive | 
Cc1noc(C)c1S(=O)(=O)N1CCCC(C(=O)NCc2ccccn2)C1 (centres undefined) | inactive | 

SMILES | outcome | EC50
CCOC(=O)c1ccc(N2CN=C3SCC(=O)N3C2)cc1 | inactive | 
Cc1ccc(OCCN2C(=O)OC(C)(C)C2(C)O)cc1 (centres undefined) | inactive | 
Clc1cccc(Nc2c3c(nc4ncnn24)CCC3)c1 | inactive | 
CSc1ccccc1NC(=O)c1onc(C)c1Cl | inactive | 
CCOC(=O)c1c(C)oc2c1c(C=NCc1ccccn1)c(O)c1ccccc12 | inactive | 
Cc1ccc(-c2cc(-c3ccc(C)o3)nc(N)c2C#N)cc1 | inactive | 
CCOC(=O)Cc1[nH]nc2c1C(c1cccc(OC)c1OC)C(C#N)=C(N)O2 (centres undefined) | inactive | 
CCOc1cc(C2CC(=O)NC(SCC)=C2C#N)ccc1O (centres undefined) | inactive | 
COc1ccc(-c2noc(CCN3C(=O)c4ccccc4C3=O)n2)cc1OC |  | 309 nM
N#Cc1cc2ccccc2nc1SCC(=O)Nc1ccc(S(=O)(=O)N2CCCC2)cc1 | inactive | 
CCOc1ccccc1NC(=O)CN(C)S(=O)(=O)c1cccc2nsnc12 | inactive | 
CCCCCn1c(N)c(C#N)c2nc3ccccc3nc21 | inactive | 
Clc1ccccc1-c1nn2c(-c3ccncc3)nnc2s1 | inactive | 
CCCNc1nc2c(c(=O)[nH]c(=O)n2C)n1CCc1ccccc1 | inactive | 
CCn1ncc(C2=NOC(C(=O)Nc3ccc4c(c3)OCO4)C2)c1C (centres undefined) | inactive | 
CCOC(=O)CN(C(=O)CSc1nnc(-c2ccc(OC)c(OC)c2)o1)c1ccc(F)cc1 | inactive | 
Cc1c(C(=O)OCC(C)C)[nH]c2c1C(=O)CC(c1ccco1)C2 (centres undefined) |  | 1570 nM
Cc1cc(NS(=O)(=O)c2ccc(NC(=O)COc3ccccc3C(C)C)cc2)no1 | inactive | 
CCc1nc2ccccc2c(C(=O)OCC(=O)NCc2ccco2)c1C | inactive | 
CCc1nnc(NC(=O)CSc2ncc(-c3ccccc3)n2CC)s1 | inactive | 
CCCCn1c(=O)c(C(=O)Nc2cnccn2)c(O)c2ccccc21 | inactive | 
COCCNC(=O)c1c(NC(=O)c2ccco2)n(Cc2ccccc2)c2nc3ccccc3nc12 | inactive | 
CC(C)Cn1c(=O)c2c(c3ccccc31)OC(C)C(=O)N2 (centres undefined) | inactive | 
CC(=O)c1cc(C#N)c(SCc2ccncc2)nc1C | inactive | 
COc1ccc(-c2coc3cc(O)cc(O)c3c2=O)cc1 | inactive | 
COc1cccc(N2C(=O)C3ON(c4ccccc4)C(c4cccs4)C3C2=O)c1 (centres undefined) | inactive | 
COc1ccc(-c2cc(=O)oc3c(C)c(O)c(CN(C)C)cc23)cc1 | inactive | 

SMILES | outcome | EC50
CCC1(CC)C(=O)NC(=NCCc2c[nH]c3ccccc23)NC1=O | inactive | 
COc1ccc(C(=O)Nc2nnc(Cc3cccs3)s2)cc1OC |  | 313 nM
Cc1cc(O)c(C=Nc2cccc(Cl)c2)c(=O)o1 | inactive | 
Fc1cc(Br)ccc1Nc1nc2ccccc2n2nnnc12 | inactive | 
COC(=O)c1c(-c2ccc(F)cc2)csc1NC(=O)c1ccco1 | inactive | 
CCOC(=O)N1CCC(NC(=O)c2cccc3c2C(=O)N(Cc2cccnc2)C3)CC1 | inactive | 
N#Cc1nc(-c2ccccc2Cl)oc1N1CCOCC1 | inactive | 
N#CCCN1CCN(S(=O)(=O)c2ccc(S(=O)(=O)NC3CCCCC3)cc2)CC1 | inactive | 
c1ccc(Cn2nnc3c(N4CCc5ccccc54)ncnc32)cc1 | inactive | 
C=CCn1c(=S)[nH]c2nc3c(cc2c1=O)CCCC3 | inactive | 
c1ccc(COc2nsnc2N2CCOCC2)cc1 | inactive | 
CCCOc1ccccc1NC(=O)c1ccc(N)cc1 | inactive | 
Cc1csc2c(C#N)c(=O)c3c(n12)CCC3 | inactive | 
O=C(CCSc1nc2ccccc2o1)N1CCOCC1 | inactive | 
N#Cc1cnn(Cc2ccccc2)c1/N=C/N1CCOCC1 | inactive | 
COc1ccc(OC)c(C2=NOC(C(=O)Nc3cccc(C(C)=O)c3)C2)c1 (centres undefined) | inactive | 
CCOc1ccccc1C1CC(c2ccccc2)Nc2nc(N)nn21 (centres undefined) | inactive | 
N#Cc1nc(-c2ccc(F)cc2)oc1NCc1ccccc1 | inactive | 
COc1ccc(-c2csc3nc(C)n(-n4cccc4)c(=O)c23)cc1OC | inactive | 
COC(=O)/C(=C1/Oc2cc3c(cc2S1)OCO3)C(F)(F)F | inactive | 
COc1ccc(CCN(C)C(=O)C2CCCN(Cc3ccc(OC)c(OC)c3)C2)cc1OC (centres undefined) | inactive | 
Cc1cccc(Cc2c(C)nc3c(C(=O)NCc4ccco4)cnn3c2C)c1 | inactive | 
O=C1COc2ccc(C(=O)c3ccccc3)cc2CN1 | inactive | 
CCCCSc1nc2c(c(=O)n1CC)SC(C)C2 (centres undefined) | inactive | 
NC(=O)c1c(NC(=O)CSc2nnc(-c3ccco3)n2-c2ccccc2)sc2c1CCC2 | inactive | 

— PubChem BioAssay AID858 (Vanderbilt High Throughput Screening Facility, 2007)
